From patent US20250236596A1, “HYDROXYLAMINE-BASED EGFR INHIBITORS FOR TREATMENT OF CANCER WITH BRAIN METASTASES” (University of Georgia Research Foundation, Inc., priority 2022, published 2025)

What was measured:
CYP2D6 = CYP2D6 (Homo sapiens, UniProt P10635); test: CYP2D6 time-dependent inhibition IC50-shift; type: in vitro ADME; conditions: human liver microsomes and primary human hepatocytes; 30 min pre-incubation
Method: Incubations in human hepatocytes were carried out without pre-incubation or with a 30 min pre-incubation at 37° C., 5% CO2. The experiment was carried out at 37° C., 5% CO2 for 5 min.

[1] = test system: HCC827-luc intracranial tumor; test: Intracranial PDX model with luciferase-tagged HCC827 cells; type: in vivo, BALB/c nude mice; conditions: 10 mg/kg PO b.i.d
Method: (§1) Animal experiments were performed at Pharmaron Inc. and animal use was approved by Pharmaron's Institutional Animal Care and Use Committee (IACUC) in Pharmaron (Pharmaron IACUC, Protocol #PK-M-07182022, #PK-R-06012022 and #ON-CELL-XEN-06012022) following the guidance of AAALAC. Six- to eight-week-old male SD rats (approximately 200-300 g) obtained from Si Bei Fu Laboratory Animal Technology Co., six- to eight-week-old male CD1 mice (approximately 20-30 g) obtained from Si Bei Fu Laboratory Animal Technology Co., and six- to eight-week-old female BALB/c nude mice (approximately 20-30 g) obtained from Si Bei Fu Laboratory Animal Technology Co., were used in the pharmacokinetic studies. Six- to eight-week-old female BALB/c nude mice (approximately 18-22 g) obtained from Beijing Anikeeper Biotech Co., Ltd were used in the intracranial PDX study. Animals were housed at 20-25° C. with humidity ranging from 40-70% relative humidity, were exposed to 12 h light and dark cycles, and were supplied with food and water ab libitum.
HCC827 cells stably expressing luciferase (HCC827-luc) were injected intracranially. Briefly, 3×10^5 HCC827-luc tumor cells suspended in 2 μL RPMI1640 medium were injected into the right forebrain of anesthetized mice (anesthetic: intramuscular injection of Zoletl™ 50 (Virbac S.A)). Mice were imaged bi-weekly using IVIS Lumina Ill (Perkin Elmer). Images were acquired 10 min post intraperitoneal (IP) injection with 15 mg/mL (at 5 μL/g body weight) of D-luciferin in anesthetized mice (anesthetic: 1-2% isoflurane inhalation). On day 20 post-cellular inoculation, mice were randomized into 2 treatment groups (n=10 mice per group): 1) 1% methylcellulose as vehicle control and 2) 15 (10 mg/kg) (formulation: 1% methylcellulose), PO, b.i.d. (twice daily) dosing (12 h intervals)×7 days for 21 days. […] Body weights of all mice were measured bi-weekly throughout the study and BW change, expressed in % was calculated using the following formula.
BW change (%)=(BWDay X/BWDay 0)×100
Where, BWDay X is the BW on a given day, and BWDay 0 is BW on Day 0 (initiation of treatment). […]

Caco-2 cells = test: Caco-2 cell permeability assay; type: in vitro ADME; conditions: result in words
Method: Compounds were evaluated at Pharmaron Inc. for their ability to permeate Caco-2 cells and MDCKII-MDR1 cells. A 96-well HTS Transwell plate (Corning) was used for the Caco-2 and MDCKII-MDR1 cell seeding. Caco-2 cells were seeded at a density of 6.86×10^5 cells/mL and cultivated for 14-18 days prior to assays. MDCKII-MDR1 cells were seeded at a density of 1.56×10^6 cells/mL and cultivated for 4-8 days prior to assays. To determine the rate of drug transport in both the absorptive (apical to basolateral (A-B)) and secretory (basolateral to apical (B-A)) directions, compounds (5 μM in DMSO for Caco-2 cells, and 1 μM in DMSO for MDCKII-MDR1 cells) were added to the donor wells. Plates were incubated at 37° C. for 2 h and samples (50 μL) were taken at the beginning and end of the incubation in both the donor and acceptor wells with the assay run in duplicate (n=2). Samples were analyzed by LC-MS/MS. The apparent permeability coefficient (Papp) in units (cm/s×10^−6) was calculated using the following equation.
where, VA represents the volume (mL) in the acceptor well. Area is the surface of the membrane (0.143 cm^2 for Transwell-96 well plate) and time is the total transport time in sec.
The efflux ratio was determined using the following equation: Efflux ratio=Papp (B-A)/Papp(A-B)
Where, Papp (B-A) indicates the apparent permeability in the basolateral to apical direction, and Papp (A-B) indicates the apparent permeability in the apical to basolateral direction.

[2] = Oral CNS pharmacokinetics in SD rats; type: in vivo; conditions: male, rat, brain and plasma, single oral dose 20 mg/kg, read-out: Kp,uu (unbound brain-to-unbound plasma partitioning coefficient) (AUCinf)
Method: as §1, with “Animals were housed at 20-25° C. with humidity ranging from 40-70% relative humidity, were exposed to 12 h light and dark cycles, and were supplied with food and water ab libitum.” left out
Oral CNS pharmacokinetic assessment of 15 was done by oral gavage (formulation: 1% methylcellulose) followed by blood and brain sampling at 7 time points (0.25, 0.5, 1, 2, 4, 8, 24 h post dose) with n=3 animals per time point (n=21 total). […] Concentrations of 15 in the plasma and brain samples were determined using LC-MS/MS and WinNonlin 8.3 (Phoenix™) was used for pharmacokinetic calculations. […]

CYP2D6, sequence (P10635 whole entry): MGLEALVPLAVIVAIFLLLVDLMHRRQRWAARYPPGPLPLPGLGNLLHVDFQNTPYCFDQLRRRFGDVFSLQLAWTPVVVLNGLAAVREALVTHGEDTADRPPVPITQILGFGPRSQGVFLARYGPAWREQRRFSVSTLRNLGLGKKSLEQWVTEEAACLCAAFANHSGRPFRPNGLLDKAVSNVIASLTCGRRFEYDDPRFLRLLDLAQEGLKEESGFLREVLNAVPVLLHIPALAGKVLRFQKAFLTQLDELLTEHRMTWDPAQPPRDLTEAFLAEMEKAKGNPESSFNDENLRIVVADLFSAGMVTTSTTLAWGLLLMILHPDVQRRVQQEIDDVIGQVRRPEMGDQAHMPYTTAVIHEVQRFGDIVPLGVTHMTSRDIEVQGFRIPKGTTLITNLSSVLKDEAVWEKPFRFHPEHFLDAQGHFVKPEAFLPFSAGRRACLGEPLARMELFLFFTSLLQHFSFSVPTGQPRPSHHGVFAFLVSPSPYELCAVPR

Structure (SMILES): COc1cc2ncnc(Nc3cccc(Cl)c3F)c2cc1OCCON1CCN(C)CC1 [Compound 15, N-(3-chloro-2-fluorophenyl)-7-methoxy-6-(2-((4-methylpiperazin-1-yl)oxy)ethoxy)quinazolin-4-amine]
- CYP2D6 time-dependent inhibition (TDI) (CYP2D6): not to be time dependent
- mean body weight loss ([1]; 21-day treatment window): ≤ 10%
- adverse clinical events ([1]; 21 days): no adverse clinical events
- intracranial tumor response (bioluminescence) relative to vehicle control ([1]; 21 days, P=0.0059): profound tumor regression
- efflux (Caco-2 cells): reduced efflux ratios
- permeability (Caco-2 cells): remarkably enhanced permeability
- Kp,uu (unbound brain-to-unbound plasma partition coefficient) [2]: 0.33
